≈ marks a conversion by molar mass, not a printed value. Where “and” joins values, the source holds several entries; their conditions need not be identical. Equal values may be shown once. Entries after “also recorded” stand apart in the source; their conditions may differ.
test: Equilibrium surface tension at the air-aqueous solution interface (Wilhelmy plate); type: physicochemical; conditions: water, 25 °C
Description: The surface activity of the synthesized molecules was studied mainly in terms of their adsorption behavior on the air-aqueous solution interface. The equilibrium surface tensions γ were measured by means of a Wilhelmy plate using a K100 Processor Tensiometer (KRUSS, Hamburg, Germany). The equilibrium surface tension γ was plotted as a function of the log concentration for all molecules, from which we can derive various parameters, like critical micellar concentration (CMC) extrapolated from the break in the surface tension curve and surface tension at the CMC (γcmc). The surface excess (Γmax) and minimal area per molecule at air-aqueous solution interface (Amin) can be calculated from Gibbs equation for non-ionic surfactants: (2) Гmax=−1/2.303RT(dγ/dlogc) and (3) Amin=10^20/NAГmax where R is the ideal gas constant (8.31 J·mol^−1K^−1)’ T is the measuring temperature (K); γ is the surface tension (N·m^−1), c is the concentration (mol·L^−1); Amin is the minimal area per molecule (Å^2); and NA is Avogadro′s number (6.02 × 10^23 mol^−1).
For each molecule, a series of solutions of different concentrations were prepared well above its Krafft Point, either at room temperature of about 25 °C or at 50 °C, under agitation in a water bath for 30 min. Measurements were carried out for each concentration, either at 25 °C for molecules with a Tk below room temperature, or at T > Tk for those with higher Tk values than 25 °C. The standard deviation for temperature is 1 °C.

| Compound | CMC [mM] | γcmc (surface tension at the CMC) [mN·m^−1] |
| --- | --- | --- |
| CCCCCCCCCCOC(=O)[C@H]1O[C@H](OC)[C@H](O)[C@@H](O)[C@@H]1O [3e, Decyl (methyl α-D-glucopyranosid)uronate] | 0.65 ± 0.05 | 28.1 ± 0.1 |
| CCCCCCCCCCCCOC(=O)[C@H]1O[C@H](OC)[C@H](O)[C@@H](O)[C@@H]1O [3f, Dodecyl (methyl α-D-glucopyranosid)uronate] | 0.056 ± 0.004 | 28.3 ± 0.3 |
| CCCCCCOC(=O)[C@H]1O[C@H](OC)[C@H](O)[C@@H](O)[C@@H]1O [3c, Hexyl (methyl α-D-glucopyranosid)uronate] | 55 ± 5 | 30.8 ± 0.8 |
| CCCCCCCCOC(=O)[C@H]1O[C@H](OC)[C@H](O)[C@@H](O)[C@@H]1O [3d, Octyl (methyl α-D-glucopyranosid)uronate] | 6.0 ± 0.5 | 29.2 ± 0.4 |
| CCCCCCCCOC(=O)C1OC(OC)C(O)C(O)C1O [compound 7, Octyl (methyl α-D-mannopyranosid)uronate] | 5.5 ± 0.5 | 28.3 ± 0.3 |

same assay, conditions: water, 25 °C; calculated from Gibbs equation

| Compound | Amin (minimal area per molecule at air-aqueous solution interface) [Å^2/molecule] |
| --- | --- |
| CCCCCCCCCCOC(=O)[C@H]1O[C@H](OC)[C@H](O)[C@@H](O)[C@@H]1O [3e, Decyl (methyl α-D-glucopyranosid)uronate] | 42.4 ± 2 |
| CCCCCCCCCCCCOC(=O)[C@H]1O[C@H](OC)[C@H](O)[C@@H](O)[C@@H]1O [3f, Dodecyl (methyl α-D-glucopyranosid)uronate] | 45.6 ± 5 |
| CCCCCCOC(=O)[C@H]1O[C@H](OC)[C@H](O)[C@@H](O)[C@@H]1O [3c, Hexyl (methyl α-D-glucopyranosid)uronate] | 39.2 ± 2.9 |
| CCCCCCCCOC(=O)[C@H]1O[C@H](OC)[C@H](O)[C@@H](O)[C@@H]1O [3d, Octyl (methyl α-D-glucopyranosid)uronate] | 41.0 ± 1 |
| CCCCCCCCOC(=O)C1OC(OC)C(O)C(O)C1O [compound 7, Octyl (methyl α-D-mannopyranosid)uronate] | 42.8 ± 2 |

same assay, conditions: water, 40 °C

| Compound | CMC [mM] | γcmc (surface tension at the CMC) |
| --- | --- | --- |
| CCCCCCCCOC(=O)[C@H]1O[C@@H](OC)[C@H](O)[C@@H](O)[C@H]1O [compound 5, Octyl (methyl β-D-galactopyranosid)uronate] | 6.9 ± 0.4 | 29.4 ± 0.36 mN·m^−1 and 29.4 ± 0.4 mN·m^−1 |

same assay, conditions: water, 40 °C; calculated from Gibbs equation

| Compound | Amin (minimal area per molecule at air-aqueous solution interface) [Å^2/molecule] |
| --- | --- |
| CCCCCCCCOC(=O)[C@H]1O[C@@H](OC)[C@H](O)[C@@H](O)[C@H]1O [compound 5, Octyl (methyl β-D-galactopyranosid)uronate] | 42.9 ± 3.9 |

test: Aqueous solubility: concentration limit of apparently clear solution ([C]max) by visual observation; type: physicochemical; conditions: deionized water, room temperature of about 25 °C, visual observation
Description: (§1) For each molecule, several samples in 1–2 mL deionized water with various concentrations (between 0.01 mM and 100 mM) were prepared by homogenizing at 500 rpm with a standard magnetic hotplate stirrer MR 3001K (Heidolph Instruments, Schwabach, Germany) for 30 min. The soluble or insoluble character was estimated on the aspect change of corresponding dispersion systems. The concentration limit to obtain an apparently clear solution was noted [C]max. […] This allows the examination of the temperature-driven solubilization behavior and verifies the presence of the Krafft point (Tk), above which the surfactant solubility in water increases abruptly. At Tk, solubility of the surfactant reaches its critical micelle concentration (CMC). In other words, Tk represents the critical temperature at which the micellization process occurs with the dissolution of hydrated surfactant crystals. Thus, Tk can be precisely determined by differential scanning calorimetry (DSC), which has already been proposed by some authors. All of the measurements were performed with a commercial µDSC7 evo calorimeter (SETARAM Instrumentation, Caluire, France). For each molecule, a sample with a concentrated aqueous mixture of 10% (w/w) molecule (C >> CMC) was prepared at 50 °C under magnetic agitation for 30 min to obtain a homogeneous and clear dispersion. These dispersions were then put into a refrigerator at 4 °C for a period over a week, permitting potential phase transitions, including the formation of equilibrated hydrated crystals. Samples of about 300 mg were introduced in the calorimeter cell and equilibrated at 4 °C for 1 h. A heating scan from 4 °C to 65 °C at a rate of 0.5 °C/min was then performed. Tk were identified as the onset of the endothermic signal detected by DSC during the dissolution of hydrated crystals. Tk were calculated as an average of at least two measurements.

| Compound | solubility at 30 min [µM] |
| --- | --- |
| CCCCCCCCCCOC(=O)[C@H]1O[C@H](OC)[C@H](O)[C@@H](O)[C@@H]1O [3e, Decyl (methyl α-D-glucopyranosid)uronate] | 500 to 750 (≈ 174 to 261 µg/mL) |
| CCCCCCCCCCCCOC(=O)[C@H]1O[C@H](OC)[C@H](O)[C@@H](O)[C@@H]1O [3f, Dodecyl (methyl α-D-glucopyranosid)uronate] | ≥ 30 |
| CCCCCCOC(=O)[C@H]1O[C@H](OC)[C@H](O)[C@@H](O)[C@@H]1O [3c, Hexyl (methyl α-D-glucopyranosid)uronate] | ≥ 50000 |
| CCCCCCCCOC(=O)[C@H]1O[C@H](OC)[C@H](O)[C@@H](O)[C@@H]1O [3d, Octyl (methyl α-D-glucopyranosid)uronate] | ≥ 20000 |
| CCCCCCCCOC(=O)C1OC(OC)C(O)C(O)C1O [compound 7, Octyl (methyl α-D-mannopyranosid)uronate] | ≥ 5000 |

same assay, conditions: water, 25 °C (Table 2)

| Compound | [C]max [mM] |
| --- | --- |
| CCCCCCCCCCOC(=O)[C@H]1O[C@H](OC)[C@H](O)[C@@H](O)[C@@H]1O [3e, Decyl (methyl α-D-glucopyranosid)uronate] | 0.5 to 0.75 |
| CCCCCCCCCCCCOC(=O)[C@H]1O[C@H](OC)[C@H](O)[C@@H](O)[C@@H]1O [3f, Dodecyl (methyl α-D-glucopyranosid)uronate] | 0.03 to 0.05 |
| CCCCCCOC(=O)[C@H]1O[C@H](OC)[C@H](O)[C@@H](O)[C@@H]1O [3c, Hexyl (methyl α-D-glucopyranosid)uronate] | 50 to 60 |
| CCCCCCCCOC(=O)[C@H]1O[C@H](OC)[C@H](O)[C@@H](O)[C@@H]1O [3d, Octyl (methyl α-D-glucopyranosid)uronate] | 15 to 20 |
| CCCCCCCCOC(=O)C1OC(OC)C(O)C(O)C1O [compound 7, Octyl (methyl α-D-mannopyranosid)uronate] | 5.0 to 6.2 |

same assay, conditions: water, 40 °C (Table 2)

| Compound | [C]max [mM] |
| --- | --- |
| CCCCCCCCOC(=O)[C@H]1O[C@@H](OC)[C@H](O)[C@@H](O)[C@H]1O [compound 5, Octyl (methyl β-D-galactopyranosid)uronate] | >100 |

same assay, conditions: water, above Krafft temperature (31 °C)

| Compound | [C]max at T > Tk [mM] |
| --- | --- |
| CCCCCCCCOC(=O)[C@H]1O[C@@H](OC)[C@H](O)[C@@H](O)[C@H]1O [compound 5, Octyl (methyl β-D-galactopyranosid)uronate] | > 100 |

same assay, conditions: water, room temperature of about 25 °C, visual observation

| Compound | [C]max at ≈25 °C (concentration limit of apparently clear solution) |
| --- | --- |
| CCCCCCCCOC(=O)[C@H]1O[C@@H](OC)[C@H](O)[C@@H](O)[C@H]1O [compound 5, Octyl (methyl β-D-galactopyranosid)uronate] | insoluble |

test: Krafft temperature (Tk) by differential scanning calorimetry; type: physicochemical; conditions: DSC, aqueous mixture 10% (w/w), heating scan 4 °C to 65 °C, onset of endothermic signal
Description: as §1

| Compound | Tk (Krafft Temperature) |
| --- | --- |
| CCCCCCCCCCOC(=O)[C@H]1O[C@H](OC)[C@H](O)[C@@H](O)[C@@H]1O [3e, Decyl (methyl α-D-glucopyranosid)uronate] | undetected |
| CCCCCCCCCCCCOC(=O)[C@H]1O[C@H](OC)[C@H](O)[C@@H](O)[C@@H]1O [3f, Dodecyl (methyl α-D-glucopyranosid)uronate] | 22 ± 0.2 °C |
| CCCCCCOC(=O)[C@H]1O[C@H](OC)[C@H](O)[C@@H](O)[C@@H]1O [3c, Hexyl (methyl α-D-glucopyranosid)uronate] | undetected |
| CCCCCCCCOC(=O)[C@H]1O[C@H](OC)[C@H](O)[C@@H](O)[C@@H]1O [3d, Octyl (methyl α-D-glucopyranosid)uronate] | no signal; also recorded: undetected |
| CCCCCCCCOC(=O)[C@H]1O[C@@H](OC)[C@H](O)[C@@H](O)[C@H]1O [compound 5, Octyl (methyl β-D-galactopyranosid)uronate] | 31 ± 0.9 °C |
| CCCCCCCCOC(=O)C1OC(OC)C(O)C(O)C1O [compound 7, Octyl (methyl α-D-mannopyranosid)uronate] | no signal; also recorded: undetected |

test: not given; conditions: cited from earlier work

| Compound | CMC [mM] |
| --- | --- |
| polyethylene glycol tert-octylphenyl ether [Triton X-100] | 0.23 to 0.24 |
| polyoxyethylene sorbitan monolaurate [Tween 20] | 0.050 to 0.059 |
| polyoxyethylene (23) lauryl ether [Brij 35] | 0.03 to 0.09 |

Reference: PMC6273592, “Catalytic Synthesis of a New Series of Alkyl Uronates and Evaluation of Their Physicochemical Properties” (Molecules, 2016)
